According to PubChem BioAssay AID1963427 (Molecular Pharmacology Branch, DTP, NCI, 2024):
“And” between values parts separate entries of the source, which are not always exact repeats. Equal entries are not always repeated.

Test system: 317291-083-R-J1-PDC complex spheroid growth
Experiment: Anticancer human tumor 317291-083-R-J1-PDC patient-derived soft tissue sarcoma cell line growth inhibition [Asc]
Settings: for viability, T/C: stronger effect = lower value; active = viability on the fitted dose curve at most 10% of control; inactive = the rest
Method in brief: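 Complex spheroids combining tumor cells with HUVEC endothelial cells and human MSCs, at 37 degrees C, 5% CO2; agents tested alone or combined, half-log dilutions from at or near clinical Cmax, or 10 microM if Cmax unknown.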

[1] = curve of first compound, second compound 0.0316 µM
[2] = curve of first compound, second compound 0.1 µM
[3] = curve of first compound, second compound 0.316 µM
[4] = curve of first compound, second compound 1 µM
[5] = curve of first compound, second compound 3.16 µM
[6] = curve of first compound, second compound 10 µM
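Also: compound exposure lasted seven days after spheroids formed for three days.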
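For viability, T/C in this document: 100% = DMSO vehicle control wells.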

CCN1C(C(=O)NC23CCC(C(=O)O)(CC2)CC3)C(c2cccc(Cl)c2F)C2(C(=O)Nc3cc(Cl)ccc32)C12CCCCC2 (stereo unspecified) + Cc1c(S(C)(=O)=O)c(-c2cc(F)cc(N3CCN(c4ccc(NS(=O)(=O)c5ccc(NC(CCN6CCC(C(=O)OCCCP(=O)(O)O)CC6)CSc6ccccc6)c(S(=O)(=O)C(F)(F)F)c5)cc4)CC3)c2)c(-c2ccc(Cl)cc2)n1C(C)C
inactive: viability, T/C (second compound 0.0316 µM, first compound 0.00949 µM) 108% | viability, T/C (second compound 0.0316 µM, first compound 0.03 µM) 122% | viability, T/C (second compound 0.0316 µM, first compound 0.0949 µM) 99.7% | viability, T/C (second compound 0.0316 µM, first compound 0.3 µM) 95.1% | viability, T/C (second compound 0.0316 µM, first compound 0.949 µM) 83.6% | viability, T/C (second compound 0.0316 µM, first compound 3 µM) 80.5% | viability, T/C (second compound 0.1 µM, first compound 0.00949 µM) 110% | viability, T/C (second compound 0.1 µM, first compound 0.03 µM) 90.2% | viability, T/C (second compound 0.1 µM, first compound 0.0949 µM) 89.5% | viability, T/C (second compound 0.1 µM, first compound 0.3 µM) 98.2% | viability, T/C (second compound 0.1 µM, first compound 0.949 µM) 108% | viability, T/C (second compound 0.1 µM, first compound 3 µM) 73.4% | viability, T/C (second compound 0.316 µM, first compound 0.00949 µM) 80.9% | viability, T/C (second compound 0.316 µM, first compound 0.03 µM) 90.8% | viability, T/C (second compound 0.316 µM, first compound 0.0949 µM) 90.3% | viability, T/C (second compound 0.316 µM, first compound 0.3 µM) 98.4% | viability, T/C (second compound 0.316 µM, first compound 0.949 µM) 91.5% | viability, T/C (second compound 0.316 µM, first compound 3 µM) 67.6% | viability, T/C (second compound 1 µM, first compound 0.00949 µM) 92.2% | viability, T/C (second compound 1 µM, first compound 0.03 µM) 90.3% | viability, T/C (second compound 1 µM, first compound 0.0949 µM) 68.9% | viability, T/C (second compound 1 µM, first compound 0.3 µM) 90.2% | viability, T/C (second compound 1 µM, first compound 0.949 µM) 89.7% | viability, T/C (second compound 1 µM, first compound 3 µM) 58% | viability, T/C (second compound 3.16 µM, first compound 0.00949 µM) 83.9% | viability, T/C (second compound 3.16 µM, first compound 0.03 µM) 84.1% | viability, T/C (second compound 3.16 µM, first compound 0.0949 µM) 68.6% | viability, T/C (second compound 3.16 µM, first compound 0.3 µM) 82.1% | viability, T/C (second compound 3.16 µM, first compound 0.949 µM) 85.9% | viability, T/C (second compound 3.16 µM, first compound 3 µM) 63.1% | viability, T/C (second compound 10 µM, first compound 0.00949 µM) 99.3% | viability, T/C (second compound 10 µM, first compound 0.03 µM) 102% | viability, T/C (second compound 10 µM, first compound 0.0949 µM) 90.8% | viability, T/C (second compound 10 µM, first compound 0.3 µM) 85.4% | viability, T/C (second compound 10 µM, first compound 0.949 µM) 94.8% | viability, T/C (second compound 10 µM, first compound 3 µM) 75.8%
> 3 µM: IC50 [1] | IC50 [2] | IC50 [3] | IC50 [4] | IC50 [5] | IC50 [6]

Cc1nc(N2CCC3(CC2)COC(C)C3N)c(CO)nc1Sc1ccnc(N)c1Cl (stereo unspecified)
2 µM and > 3 µM: IC50 (curve of compound)
inactive: viability, T/C (compound 0.00949 µM) 108% and 113% and 102% | viability, T/C (compound 0.03 µM) 83.1% and 90.6% and 95.5% | viability, T/C (compound 0.0949 µM) 79.3% and 103% and 99.2% | viability, T/C (compound 0.3 µM) 73.6% and 89.4% and 77.2% | viability, T/C (compound 0.949 µM) 59.2% and 66.4% and 64.5% | viability, T/C (compound 3 µM) 43.2% and 58.9% and 51%

O=C(c1ccc(F)c(F)c1Nc1ccc(I)cc1F)N1CC(O)([C@@H]2CCCCN2)C1 + Cc1c(S(C)(=O)=O)c(-c2cc(F)cc(N3CCN(c4ccc(NS(=O)(=O)c5ccc(NC(CCN6CCC(C(=O)OCCCP(=O)(O)O)CC6)CSc6ccccc6)c(S(=O)(=O)C(F)(F)F)c5)cc4)CC3)c2)c(-c2ccc(Cl)cc2)n1C(C)C
0.322 µM: IC50 [5]
0.319 µM: IC50 [6]
0.291 µM: IC50 [3]
0.419 µM: IC50 [1]
0.344 µM: IC50 [2]
0.443 µM: IC50 [4]
active: viability, T/C (second compound 3.16 µM, first compound 1 µM) 9.52%
inactive: viability, T/C (second compound 0.0316 µM, first compound 0.00316 µM) 98.2% | viability, T/C (second compound 0.0316 µM, first compound 0.01 µM) 96.5% | viability, T/C (second compound 0.0316 µM, first compound 0.0316 µM) 99.2% | viability, T/C (second compound 0.0316 µM, first compound 0.1 µM) 97.7% | viability, T/C (second compound 0.0316 µM, first compound 0.316 µM) 60.5% | viability, T/C (second compound 0.0316 µM, first compound 1 µM) 17.5% | viability, T/C (second compound 0.1 µM, first compound 0.00316 µM) 85.2% | viability, T/C (second compound 0.1 µM, first compound 0.01 µM) 81.6% | viability, T/C (second compound 0.1 µM, first compound 0.0316 µM) 72.2% | viability, T/C (second compound 0.1 µM, first compound 0.1 µM) 111% | viability, T/C (second compound 0.1 µM, first compound 0.316 µM) 52.9% | viability, T/C (second compound 0.1 µM, first compound 1 µM) 13.2% | viability, T/C (second compound 0.316 µM, first compound 0.00316 µM) 85% | viability, T/C (second compound 0.316 µM, first compound 0.01 µM) 76.7% | viability, T/C (second compound 0.316 µM, first compound 0.0316 µM) 75.3% | viability, T/C (second compound 0.316 µM, first compound 0.1 µM) 103% | viability, T/C (second compound 0.316 µM, first compound 0.316 µM) 47.4% | viability, T/C (second compound 0.316 µM, first compound 1 µM) 10.6% | viability, T/C (second compound 1 µM, first compound 0.00316 µM) 76.7% | viability, T/C (second compound 1 µM, first compound 0.01 µM) 85.5% | viability, T/C (second compound 1 µM, first compound 0.0316 µM) 72.6% | viability, T/C (second compound 1 µM, first compound 0.1 µM) 73% | viability, T/C (second compound 1 µM, first compound 0.316 µM) 67.3% | viability, T/C (second compound 1 µM, first compound 1 µM) 11.2% | viability, T/C (second compound 3.16 µM, first compound 0.00316 µM) 74.9% | viability, T/C (second compound 3.16 µM, first compound 0.01 µM) 72.7% | viability, T/C (second compound 3.16 µM, first compound 0.0316 µM) 73% | viability, T/C (second compound 3.16 µM, first compound 0.1 µM) 79.4% | viability, T/C (second compound 3.16 µM, first compound 0.316 µM) 50.7% | viability, T/C (second compound 10 µM, first compound 0.00316 µM) 76.9% | viability, T/C (second compound 10 µM, first compound 0.01 µM) 92% | viability, T/C (second compound 10 µM, first compound 0.0316 µM) 73% | viability, T/C (second compound 10 µM, first compound 0.1 µM) 97.9% | viability, T/C (second compound 10 µM, first compound 0.316 µM) 50.2% | viability, T/C (second compound 10 µM, first compound 1 µM) 16.8%
